“Also recorded” adds a separate entry of the source.
How the values were obtained:
98 kD PC12 cell MEKK = experiment: MEKK immunoprecipitate kinase assay from PC12 cells with kinase inactive MEK-1; type: cell-based; details: for MEKK activity after stimulation (in words): serum starved PC12 cells, 5 minutes
Method: Reactions were stopped by the addition of 2×SDS sample buffer (20 μl). The samples were boiled for 3 minutes and subjected to SDS-PAGE and autoradiography. Raf-B was immunoprecipitated from the same untreated and treated PC12 cell lysates as above with an antiserum to a COOH-terminal peptide of Raf-B (Santa Cruz Biotechnology, Inc.) and assayed similarly. Raf-1 was immunoprecipitated with an antiserum to the 12 COOH-terminal amino acids of Raf-1 (Santa Cruz Biotechnology, Inc.).
Data represent the relative magnitude of the response for each timepoint as quantitated by phosphorimager analysis of radioactive gels from a typical experiment.
Expression of N^17Ras was induced in PC12 clones stably transfected with the N^17Ras gene by the addition of dexamethasone to the starvation media. […] PC12 cell clones stably transfected with the N^17Ras gene are less responsive to EGF-mediated activation of MEKK activity than are wild type PC12 cells. […] MEKK activity in immunoprecipitates or column fractions was dissociable from that of EGF-stimulated c-Raf-1 and Raf-B activities.
To determine whether the growth factor-mediated activation of 98 kD PC12 cell MEKK was inhibited by PKA, forskolin was used to elevate intracellular cAMP and activate PKA. […] Raf-B activity was also assayed from the same cell lysates to test whether its regulation differed from that of MEKK. Raf-B was immunoprecipitated from the same cell lysates as described above and assayed for its ability to phosphorylate MEK-1 as described above.

Raf-B = Raf-B immunoprecipitate kinase assay from PC12 cells with kinase inactive MEK-1; type: cell-based; details: PC12 cells, EGF 30 ng/ml 5 minutes
L929 cells = experiment: Propidium iodide staining of L929 clones with inducible N17 Ras or V12 Ras; type: cell-based, murine; details: IPTG-induced expression
Method: Ras expression was induced with 5 mM IPTG for 10 hours and cells were subsequently treated with 5 ng/ml TNFα in the presence or absence of 0.5 ng/ml bFGF for 16 hours. Cells were fixed and stained with propidium iodide. The percentage of apoptotic cells was calculated. Solid bars represent cells induced with IPTG; hatched bars, induced with IPTG and treated with TNFα; checked bars, induced with IPTG and treated with TNFα and bFGF.
Cell lines and culture. […] JNK activity was measured using a solid state kinase assay in which glutathione S-transferase-c-Jun (1-79) (GST-JUN) cound to glutathione-Sepharose 4B beads was used to affinity purify JNK and then JNK activity was measured in an in vitro kinase assay using the sepharose bound GST-Jun as a substrate (Hibi, M., et al. (1993) Genes & Development 7:2135-2148). […] MAPK Assay MAPK activity was measured exactly as described previously (Gardner, A. M., et al. (1994) Meth. Enzymol. 238:258-270) with the exception that MonoQ FPLC fractionation was replaced by step elution from a DEAE-Sephacel column using 0.5 M NaCl in loading buffer. […]

JNK = JNK solid state kinase assay (GST-Jun) in L929 cells; type: cell-based, murine; details: L929 cells
Method: (§1) In panel A cells were treated for 10 minutes with the indicated concentration of TNFα. JNK activation was measured using a solid phase kinase assay resulting in phosphorylation of GST-Jun. In […] the time course of MAPK activation is shown. MAPK was isolated from cell lysates on DEAE sephacel columns and MAPK activation was measured by phosphorylation of the EGFR peptide substrate. Panel C depicts the concentration curve of MAPK activation by TNFα. Cells were treated with the indicated concentration of TNFα and MAPK was assayed.
(§2) Cell lines and culture. L929 cells (ATCC CCL1 were maintained in Dulbecco's modified Eagle's medium with 5% newborn calf serum and 5% bovine calf serum (BCS) supplemented with 100 ug/ml streptomycin and 100 U/ml penicillin. The cells were grown in 10 cm dishes at 37° C. in 7.5% CO2. Cells were made quiescent where indicated by incubation in Dulbecco's modified Eagle's medium and 0.1% bovine serum albumin for 24 h. Recombinant murine TNFα and recombinant human bFGF (147aa) were from R&D Systems, Minneapolis, Minn. Cells were pretreated where indicated with the MEK-1 inhibitor PD#098059 (Parke-Davis Pharmaceutical Corp. Ann Arbor, Mich.) for 1 h at 37° C. Cells were stimulated by incubation with the indicated cytokine or growth factor for various times at 37° C. Stimulation was stopped by rinsing the plates twice with ice cold phosphate buffered saline (PBS) and lysing the cells in the appropriate lysis buffer. Cells were scraped from the plates and nuclei were pelleted for 10 min at 14,000 RPM in a microcentrifuge. JNK assay. JNK activity was measured using a solid state kinase assay in which glutathione S-transferase-c-Jun (1-79) (GST-JUN) cound to glutathione-Sepharose 4B beads was used to affinity purify JNK and then JNK activity was measured in an in vitro kinase assay using the sepharose bound GST-Jun as a substrate (Hibi, M., et al. (1993) Genes & Development 7:2135-2148). Stimulated or unstimulated cells were lysed in 0.5% Nonidet P-40, 20 mM HEPES pH 7.2, 100 mM NaCl, 2 mM dithiothreitol, 1 mM EDTA, 1.0 mM phenylmethylsulfonylfluoride, 1 μg/ml aprotinin and the nuclei pelleted. Lysates were normalized for protein content. JNK was affinity purified from 50-100 μg of cell lysate by the addition of 10 ul of GST-Jun sepharose slurry (2 μg GST-Jun). Binding to GST-Jun efficiently isolates the two major forms of JNK (p45 and p55) and under the conditions used JNK isolation was linear for 10-250 μg of cell lysate. The lysates were rotated at 4° C. for 1-3 h. Beads were washed twice in lysis buffer and then twice in PAN (10 mM PIPES, pH 7.0, 100 mM NaCl, 21 μg/ml aprotinin). Kinase reactions were carried out at 30° C. for 15 min in 20 mM Hepes pH 7.2, 20 mM β-glycerophosphate, 10 mM p-nitrophenyl phosphate, 10 mM MgCl2, 1 mM dithiothreitol, 50 μm sodium vanadate, 10 μCi γ^32P-ATP 4300 Ci/mmole. The kinase reaction was linear from 0-30 min. MAPK Assay MAPK activity was measured exactly as described previously (Gardner, A. M., et al. (1994) Meth. Enzymol. 238:258-270) with the exception that MonoQ FPLC fractionation was replaced by step elution from a DEAE-Sephacel column using 0.5 M NaCl in loading buffer. The eluate was assayed in triplicate using the epidermal growth factor receptor 662-681 peptide (EGFR662-681) as a selective substrate for MAPK activity (Heasley, L. E., et al. (1994) American Journal of Physiology (Renal Fluid Electrolyte Physiol. 36) 267:F366-F373). […] Cells were lysed by scraping in ice cold RIPA buffer (50 mM Tris-HCl, pH 7.2, 150 mM NaCl, 0.1% SDS, 0.5% sodium deoxycholate, 1.0% Triton X-100, 10 mM sodium pyrophosphate, 25 mM β-glycerophosphate, 2 mM sodium vanadate, 2.1 μg/ml aprotinin) and the nuclei were pelletted. […]

p42/p44 MAPK = experiment: MAPK assay (DEAE-Sephacel, EGFR662-681 peptide) in L929 cells; type: cell-based, murine; details: L929 cells
Method: as §1
FIG. 26 depicts the activation of MAPK by bFGF in L929 cells. Serum starved L929 cells were stimulated for 10 min with the indicated concentration of bFGF.
as §2

GST-Ras^V12 = experiment: Direct binding of purified MEKKCOOH-His to GST-Ras^V12, read by phosphorylation of kinase inactive MEK1; details: 100 μM peptide, pre-incubation 1 hr at 4° C.
Excerpt: A construct encoding the kinase domain of a Rat MEKK1 cDNA (95% identical to mouse MEKK1) with a N-terminal hexahistidine tag (referred to herein as MEKKCOOH-His; provided by Dr. Melanie Cobb, Department of Pharmacology, University of Texas Southwestern Medical School, Dallas, Tex.) was expressed in bacteria and soluble active enzyme was purified on Ni2+-NTA agarose according to the method generally described in Gardner et al. (Methods of Enzymology 238:258-270, 1994) Purified recombinant MEKKCOOH-His was incubated with either GST or GST-Ras^V12 in PAN buffer (10 mM PIPES [pH 7.0], 100 mM NaCl, 0.2 U/ml aprotinin) for 1 hr at 4° C. The agarose beads were pelleted and washed 3 times in PAN buffer. […] To test the direct interaction of MEKK1 with the effector domain of Ras, samples were prepared by pre-incubating the agarose beads with either 100 μM of Ras peptide consisting of residues 17-42 of H-Ras or 100 μM of Ras control peptide ([D-Arg^1,D-Phe^5,DTrp^7,9,Leu^11] substance P peptide for 1 hr at 4° C. prior to addition of the MEK1 substrate. A control reaction containing wild-type MEKK1 which autophosphorylates, served as a marker for the MEKK1 substrate. Reactions were terminated by addition of 5× Laemmlei SDS sample buffer, boiled and resolved by SDS-PAGE.

Swiss 3T3 cells = experiment: MEKKCOOH-induced cell death after nuclear microinjection of expression plasmids; type: cell-based
Method: Swiss 3T3 and REF52 cells were plated on acid-washed glass cover slips in Dulbecco's Modified Eagle's Medium (DMEM) and 10% bovine calf serum (BCS) or newborn calf serum (NCS). Cells were placed in DMEM/0.1% calf serum for overnight incubation prior to microinjection and used for injection at 50-70% confluence. Injections were performed with an Eppendorf automated microinjection system with needles pulled from glass capillaries on a vertical pipette puller (Kopf, Tujunga, Calif.). Cells were injected with pCMVβ-gal in the presence or absence of pCMV5MEKKCOOH or pCMV5BxBRaf at 20-100 ng/μl for each expression plasmid in 100 mM KC1, 5 mM NaPO4, pH 7.3. Following injection cells were placed in 1% NCS for 12-18 hr (Swiss 3T3) or 42 hr (REF52) prior to fixation with paraformaldehyde and staining. Similar results were obtained when cells were placed in 10% NCS after microinjection. Propidium iodide ([…]) was used to stain DNA. X-Gal reactions were performed for six hr.
Swiss 3T3 cells were microinjected with 100 ng/μl pCMVβ-gal and 20 ng/μl pCMV5MEKKCOOH. To label free DNA ends fixed and rehydrated cells were incubated with terminal deoxytransferase (TDT) and 10 nM biotin-dUTP following the manufacturer's instructions (Boehringer-Mannheim). Cells were stained with FITC-streptavidin to label DNA fragments. β-gal was detected using rabbit anti-p-gal antibody (Cappel Labs) and a rhodamine-labeled goat anti-rabbit antibody (Cappel Labs).
Seventeen hours after injection cells were fixed and stained for, β-galactosidase activity with X-Gal. Injected cells attached to the coverslip were scored as positive for cell death when they were highly condensed, small round cells.

[1] = 100 ng/μl plasmids, seventeen hours after injection, X-Gal

CCCCCCCCCCCCCC(=O)O[C@@H]1[C@@H](C)[C@@]2(O)[C@@H](C=C(CO)C[C@]3(O)C(=O)C(C)=C[C@@H]23)[C@H]2C(C)(C)[C@]12OC(C)=O [TPA, reference compound]
MEKK activity after stimulation (in words) (98 kD PC12 cell MEKK): also activated MEKK, although to a lesser degree than EGF

N17 Ras: Dominant negative Ha-ras (Asn 17), inhibitory Ras [reference compound]
effect on activation of Raf-B by EGF (Raf-B): greatly reduced | effect on TNFα induced apoptosis (L929 cells; 5 ng/ml TNFα): did not affect | effect on ability of bFGF to protect against TNFα-mediated cell death (L929 cells; TNFα plus bFGF): markedly inhibit | effect on TNFα stimulation of JNK (JNK): had no effect on TNF stimulation of JNK | effect on bFGF stimulation of MAPK activity (p42/p44 MAPK): significantly blunted bFGF stimulation of MAPK | effect on activation of MEKK by EGF (98 kD PC12 cell MEKK; PC12 cells, EGF 30 ng/ml 5 minutes): inhibited the activation of MEKK by EGF

NGF: Nerve growth factor
MEKK activity after stimulation (in words) (98 kD PC12 cell MEKK): slight increase in MEKK activity; also recorded: also activated MEKK, although to a lesser degree than EGF

Ras effector peptide: Ras peptide consisting of residues 17-42 of H-Ras (SALTIQLIQNHFVDEYDPTIEDSYRK; UniProt P01112 17-42, looked up, fragment)
effect on binding of GST-Ras^V12(GTPγS) agarose to MEKKCOOH-His (GST-Ras^V12): prevented the binding

[D-Arg^1,D-Phe^5,D-Trp^7,9,Leu^11] substance P peptide [reference compound]
effect on binding of GST-Ras^V12(GTPγS) agarose to MEKKCOOH-His (GST-Ras^V12): able to bind

β-gal [reference compound]
Condensed Cells (number) (Swiss 3T3 cells; [1]): 4 | Condensed Cells (percent of cells injected) (Swiss 3T3 cells; [1]): (1%) | injected cells with an altered morphology (Swiss 3T3 cells; 48-72 hours post-injection): < 1%

— patent publication US20080201790A1, “Method and product for regulating cell responsiveness to external signals” (priority 1993, published 2008)
